Among the data in article PMC5863483, “Low HLA binding of diabetes-associated CD8+ T-cell epitopes is increased by post translational modifications” (BMC Immunology, 2018) are Fold increase and IC50 values, retold here.

*1 amine or outer side, *2 acyl side, *3 side chain or, on linkers, in order; H or OH if unused. Where a SMILES comes first, the peptide text is derived from it. Where no end group is shown, it is not given here. [ ]: non-standard residue; d: D form. γGlu = O=C(O)[C@H](CCC(=O)[*:2])N[*:1]; βAsp = O=C(O)[C@H](CC(=O)[*:2])N[*:1]; Cya = N[C@@H](CS(=O)(=O)O)C(=O)O; Cit = NC(=O)NCCC[C@H](N)C(=O)O

The target in the first test is HLA-A*02:01 (Homo sapiens, UniProt P04439, D140Y/D185E/D98H/E176V/E277Q/G131W/G231S/I119V/I121R/I166T/I218V/L300P/L318F/N151K/N90K/P208A/P217A/Q86G/Q94H/R138H/R169H/T345S). The test is described as follows: HLA-peptide competition binding assay, A*02:01. The settings on record: increase of A*02:01 binding of the modified peptide compared to the WT peptide.
`CC(C)C[C@H](NC(=O)[C@H](C)N)C(=O)N[C@@H](Cc1ccc(O)c(Cl)c1)C(=O)N[C@@H](CC(C)C)C(=O)N[C@H](C(=O)N[C@@H](CS)C(=O)NCC(=O)N[C@@H](CCC(=O)O)C(=O)N[C@@H](CCCNC(=N)N)C(=O)NCC(=O)O)C(C)C` [ALJLVCGERG] displayed a Fold increase of 3.21 fold.

Still in this test, the particulars now being: post-translationally modified insulin peptide; competition binding assay; a dash indicates IC50 >40,000 nM; read-out: A*02:01 binding (IC50 nM) Modified.
`CC(C)C[C@H](NC(=O)[C@H](Cc1c[nH]cn1)NC(=O)[C@H](CO)NC(=O)CNC(=O)[C@H](CS(=O)(=O)O)NC(=O)[C@H](CC(C)C)NC(=O)[C@@H](N)Cc1c[nH]cn1)C(=O)N[C@H](C(=O)N[C@@H](CCC(=O)O)C(=O)O)C(C)C` [HLBGSHLVE] (H-HL[Cya]GSHLVE-OH; N-terminus and C-terminus assumed): the IC50 is more than 40000 nM.

In the case of `CC(C)C[C@H](NC(=O)[C@H](C)NC(=O)[C@H](CCC(=O)O)NC(=O)[C@@H](NC(=O)[C@H](CC(C)C)NC(=O)[C@H](Cc1c[nH]cn1)NC(=O)[C@H](CO)NC(=O)CNC(=O)[C@@H](N)CS(=O)(=O)O)C(C)C)C(=O)O` [BGSHLVEAL] (H-[Cya]GSHLVEAL-OH; N-terminus and C-terminus assumed), the IC50 is more than 40000 nM. The same measure, in the same setting: under ERGYFYTPKT stands more than 40000 nM; under `CC(C)C[C@H](NC(=O)[C@H](C)N)C(=O)N[C@@H](CCC(=O)O)C(=O)NCC(=O)N[C@@H](CO)C(=O)N[C@@H](CC(C)C)C(=O)N[C@@H](CCC(N)=O)C(=O)N[C@@H](CCCCN)C(=O)N[C@@H](CCCNC(N)=O)C(=O)O` (H-ALEGSLQK[Cit]-OH; N-terminus and C-terminus assumed), more than 40000 nM; under `CC(C)C[C@H](NC(=O)[C@H](CC(=O)O)NC(=O)[C@H](CCC(=O)O)NC(=O)[C@H](C)NC(=O)[C@H](CCC(=O)O)NC(=O)[C@H](CCCNC(N)=O)NC(=O)[C@@H](N)CCCNC(N)=O)C(=O)N[C@@H](CCC(N)=O)C(=O)N[C@H](C(=O)NCC(=O)O)C(C)C` (H-[Cit][Cit]EAEDLQVG-OH; N-terminus and C-terminus assumed), more than 40000 nM. On the same count and under the same terms, in the case of `C[C@H](NC(=O)[C@H](CCC(=O)O)NC(=O)[C@H](CCCNC(N)=O)NC(=O)[C@H](CCCNC(N)=O)NC(=O)[C@@H](NC(=O)[C@H](CCCCN)NC(=O)[C@@H]1CCCN1)[C@@H](C)O)C(=O)N[C@@H](CCC(=O)O)C(=O)N[C@@H](CC(=O)O)C(=O)O` [PKTUUEAED] (H-PKT[Cit][Cit]EAED-OH; N-terminus and C-terminus assumed) it was more than 40000 nM. Regarding LVCGERGYFY, the IC50 is more than 40000 nM. For `C[C@@H](O)[C@H](NC(=O)[C@H](CCCCN)NC(=O)[C@@H]1CCCN1C(=O)[C@@H](NC(=O)[C@H](Cc1ccc(O)cc1)NC(=O)[C@@H](N)Cc1ccccc1)[C@@H](C)O)C(=O)N[C@@H](CCCNC(N)=O)C(=O)N[C@@H](CCCNC(N)=O)C(=O)N[C@@H](CCC(=O)O)C(=O)O` (H-FYTPKT[Cit][Cit]E-OH; N-terminus and C-terminus assumed), the IC50 is more than 40000 nM. The same measure, in the same setting: in the case of `CC[C@H](C)[C@H](NC(=O)CNC(=O)[C@H](CCCNC(N)=O)NC(=O)[C@H](CCCCN)NC(=O)[C@H](CCC(N)=O)NC(=O)[C@H](CC(C)C)NC(=O)[C@H](CO)NC(=O)CNC(=O)[C@@H](N)CCC(=O)O)C(=O)O` (H-EGSLQK[Cit]GI-OH; N-terminus and C-terminus assumed) it was more than 40000 nM; in that of `CC(C)C[C@H](NC(=O)[C@H](Cc1c[nH]cn1)NC(=O)CC[C@H](NC(=O)C[C@H](N)C(=O)O)C(=O)O)C(=O)N[C@@H](CS)C(=O)NCC(=O)N[C@@H](CO)C(=O)N[C@@H](Cc1c[nH]cn1)C(=O)N[C@@H](CC(C)C)C(=O)N[C@H](C(=O)O)C(C)C` [OZHLCGSHLV] ({βAsp-γGlu}-HLCGSHLV-OH; N-terminus and C-terminus assumed), more than 40000 nM.

With `CC[C@H](C)[C@H](NC(=O)CNC(=O)[C@H](CCCNC(N)=O)NC(=O)[C@H](CCCCN)NC(=O)[C@H](CCC(N)=O)NC(=O)[C@H](CC(C)C)NC(=O)[C@H](CO)NC(=O)CN)C(=O)N[C@H](C(=O)O)C(C)C` (H-GSLQK[Cit]GIV-OH; N-terminus and C-terminus assumed), the IC50 was more than 40000 nM.

Still in this test, the particulars now being: post-translationally modified insulin-derived peptide; radiolabeled ligand competition, purified MHC, two-day incubation, three or more independent experiments; read-out: A*02:01 binding, Modified.
On to `CC(C)C[C@H](NC(=O)[C@H](Cc1ccc(O)cc1)NC(=O)[C@@H](N)CC(C)C)C(=O)N[C@H](C(=O)N[C@@H](CS)C(=O)NCC(=O)N[C@@H](CCC(=O)O)C(=O)N[C@@H](CCCNC(N)=O)C(=O)NCC(=O)O)C(C)C`, for which the IC50 was 12500 nM.

Staying with this test, now noted: read-out: A*02:01 binding (IC50 nM) Modified.
With `CC(C)C[C@H](NC(=O)[C@H](CC(C)C)NC(=O)[C@H](C)NC(=O)[C@H](CC(C)C)NC(=O)[C@H](CC(C)C)NC(=O)[C@@H]1CCCN1C(=O)[C@H](CC(C)C)NC(=O)[C@H](CC(C)C)NC(=O)[C@@H](N)CCCNC(N)=O)C(=O)O` (H-[Cit]LLPLLALL-OH), the IC50 came to 83 nM.

The test is the same for the next values; noted with them: read-out: A*02:01 binding (IC50 nM) WT.
In the case of `C[C@@H](O)[C@H](NC(=O)[C@H](CCCCN)NC(=O)[C@@H]1CCCN1C(=O)[C@@H](NC(=O)[C@H](Cc1ccc(O)cc1)NC(=O)[C@H](Cc1ccccc1)NC(=O)[C@H](Cc1ccccc1)NC(=O)CN)[C@@H](C)O)C(=O)N[C@@H](CCCNC(=N)N)C(=O)O`, the IC50 is 12200 nM.

The test is the same for the next values; noted with them: read-out: IC50 nM, target assay A*02:01.
As to `CC[C@H](C)[C@H](NC(=O)[C@H](CC(N)=O)NC(=O)[C@H](C)NC(=O)[C@H](CC(C)C)NC(=O)[C@@H](N)CCCCN)C(=O)N[C@@H](CCC(N)=O)C(=O)N[C@@H](CS)C(=O)N[C@@H](CC(C)C)C(=O)N[C@@H](CS)C(=O)N[C@@H](CC(C)C)C(=O)O` [reference compound] (H-KLANIQCLCL-OH), the IC50 was found to be 97 nM. On the same count and under the same terms, under FMTSSWWGA [reference compound] stands 378 nM; under SLTAISTTL [reference compound], 242 nM; under VLFGLGFAI [reference compound], 149 nM.

On to TMHSLTIQM [reference compound], for which the IC50 came out at 104 nM. The same measure, in the same setting: under LALWGPDPAA [reference compound] stands 30300 nM; under FLQDVMNIL [reference compound], 70 nM; under ILDKKVEKV [reference compound], 11200 nM. On the same count and under the same terms, under HLSYHWLLPL [reference compound] stands 3820 nM; under VLVEGSTRI [reference compound], 17200 nM. The same measure, in the same setting: in the case of VIVMLTPLV [reference compound] it was 2120 nM; in that of HLSYHRLLPL [reference compound], 4260 nM; in that of QLARQQVHV [reference compound], more than 40000 nM. In the case of NLAQDLATV [reference compound], the IC50 was 67 nM. GLPAGAAAQA [reference compound]: the IC50 is 530 nM.

Take “FLIVLSVAL [FLIVLSVAL, reference compound]”: the IC50 was 26 nM. For the compound RLGPVARTRV [reference compound], the IC50 stood at 581 nM. Same read-out and setting: in the case of SVASLLPHV [reference compound] it was 1760 nM.

The test is the same for the next values; noted with them: unmodified (WT) insulin peptide; competition binding assay; a dash indicates IC50 >40,000 nM; read-out: A*02:01 binding (IC50 nM) WT.
Turning to ALEGSLQKRG, the IC50 is more than 40000 nM. The same measure, in the same setting: in the case of CGERGFFYT it was more than 40000 nM. For the compound PKTRREAED [PKTRREAED], the IC50 was more than 40000 nM. The same measure, in the same setting: in the case of `C[C@@H](O)[C@H](NC(=O)[C@H](CCCCN)NC(=O)[C@@H]1CCCN1C(=O)[C@@H](NC(=O)[C@H](Cc1ccc(O)cc1)NC(=O)[C@H](Cc1ccccc1)NC(=O)[C@H](Cc1ccccc1)NC(=O)CNC(=O)[C@@H](N)CCCNC(=N)N)[C@@H](C)O)C(=O)O` it was more than 40000 nM.

The same test, now with this note: unmodified (wild type) insulin-derived peptide; radiolabeled ligand competition, purified MHC, two-day incubation, three or more independent experiments; read-out: A*02:01 binding, WT.
Take `C[C@@H](O)[C@H](NC(=O)[C@H](CCCCN)NC(=O)[C@@H]1CCCN1C(=O)[C@@H](NC(=O)[C@H](Cc1ccc(O)cc1)NC(=O)[C@H](Cc1ccccc1)NC(=O)[C@H](Cc1ccccc1)NC(=O)CNC(=O)[C@@H](N)CCCNC(=N)N)[C@@H](C)O)C(=O)O`: the IC50 was more than 40000 nM.
